Columns and labels:
EstFA = EstFA (Ferroplasma acidiphilum, UniProt Q2PCE5); experiment: Enantioselectivity of EstFA towards chiral esters and lactones; assay type: biochemical; conditions: for % c / % e.e.: 100 mM citrate buffer pH 2.0, 5 μg EstFA, 10 hours; for E: enantioselectivity
Experimental: For an estimation of enantioselectivity of EstFA towards chiral esters and lactones, a number of primary and secondary alcohols as well as carboxylic acids and lactones were hydrolysed.
The above substrate specificities were tested in 96-well plates, using 100 mM citrate buffer (pH 2.0) in the presence of 5 μg pure EstFA. For the substrate, the concentrations between 10 nM and 10 mM were chosen. Progress of the reaction was followed by spectrophotometry using p-nitrophenol propionate as an indicator. The reaction was stopped after 10 hours by adjusting the pH to 8.0 by adding sodium hydroxide from a 100 mM stock solution and phenol red (0.8 mM) as a pH indicator. […] Ester hydrolysis of enantiomerically pure esters was measured colorimetrically in 5.0 mM EPPS buffer (N-(2-hydroxyethyl) piperazine-N′-(3′-propanesulfonic acid) at pH 8.0 and phenol red after termination of the reaction.

EstFA (acidic esterase) = experiment: Effect of cations and inhibitors on recombinant EstFA activity; assay type: biochemical, Ferroplasma acidiphilum; design: substitution of Fe^2+ in EstFA: dose or concentration left out as unconfirmed; conditions: for substitution of Fe^2+ in EstFA: as chloride salts
Experimental: The enzymes used for the tests were heterologously expressed in E. coli using genomic coding sequences obtained from Ferroplasma acidiphilum.
(§1) The acidic enzymes according to the invention were expressed in E. coli using the genomiccoding sequence for the respective enzyme from Ferroplasma acidiphilum, which are described in detail below. For enzymatic conversions, reaction conditions were in 100 mM sodium acetate buffer, 100 mM citrate buffer, 100 mM HEPES buffer for 2 minutes at 30° C., using p-nitrophenol propionate as the substrate for esterase, starch in the case of glycosidases, and HindIII digested λ DNA for ligase.

LigFA (acidic ligase) = experiment: Effect of cations and inhibitors on recombinant LigFA activity; assay type: biochemical, Ferroplasma acidiphilum
Experimental: as §1, with “The enzymes used for the tests were heterologously expressed in E. coli using genomic coding sequences obtained from Ferroplasma acidiphilum. The” for “The”

[1] = test system: αGluFA (acidic glucosidase); experiment: Effect of cations and inhibitors on recombinant αGluFA activity; assay type: biochemical, Ferroplasma acidiphilum
Experimental: as §1, with “The enzymes used for the tests were heterologously expressed in E. coli using genomic coding sequences obtained from Ferroplasma acidiphilum. The” for “The”

αGluFA = αGluFA (Ferroplasma acidiphilum, UniProt Q5K3Q3); experiment: Hydrolysis of glycosidic substrates by αGluFA; assay type: biochemical; conditions: pH 3.0, 50° C., 100 μM FeCl2
Experimental: A variety of glycosidic substrates were examined for hydrolysis by αGluFA and kinetic constants were determined. For the assay, heterologously expressed αGluFA was incubated in 100 mM sodium citrate buffer, pH 3.0, containing 1% substrate, 100 μM FeCl2 and 5 μg αGluFA. […] Analysis was done by HPLC. Sample blanks were used for correction of spontaneous release of reducing sugar.
As substrates, sucrose, starch, amylose, amylopectin, pullulan and dextrin were used, the release of reducing sugars could also be determined by the dinitrosalicylic acid method, i.e. adding dinitrosalicylic acid solution to the reaction mixture, heating to 85° C. for 30 minutes, dilution with water and measuring absorbance at 450 nm. Activity towards p-nitrophenol α/β diglucopyranoside could be measured spectrophotometrically by following the absorbance at 346 nm using a molar extinction coefficient of 4800.

Chain of EstFA (Q2PCE5 entry or part of it): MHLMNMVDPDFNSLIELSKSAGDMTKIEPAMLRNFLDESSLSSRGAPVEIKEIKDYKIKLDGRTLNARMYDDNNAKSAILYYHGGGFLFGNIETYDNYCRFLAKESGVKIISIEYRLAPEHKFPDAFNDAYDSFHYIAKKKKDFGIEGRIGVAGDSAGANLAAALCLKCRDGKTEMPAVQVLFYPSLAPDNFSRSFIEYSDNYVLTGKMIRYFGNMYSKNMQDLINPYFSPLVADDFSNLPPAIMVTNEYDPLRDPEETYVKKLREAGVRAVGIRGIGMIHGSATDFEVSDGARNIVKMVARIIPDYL
Chain of αGluFA (Q5K3Q3 entry or part of it): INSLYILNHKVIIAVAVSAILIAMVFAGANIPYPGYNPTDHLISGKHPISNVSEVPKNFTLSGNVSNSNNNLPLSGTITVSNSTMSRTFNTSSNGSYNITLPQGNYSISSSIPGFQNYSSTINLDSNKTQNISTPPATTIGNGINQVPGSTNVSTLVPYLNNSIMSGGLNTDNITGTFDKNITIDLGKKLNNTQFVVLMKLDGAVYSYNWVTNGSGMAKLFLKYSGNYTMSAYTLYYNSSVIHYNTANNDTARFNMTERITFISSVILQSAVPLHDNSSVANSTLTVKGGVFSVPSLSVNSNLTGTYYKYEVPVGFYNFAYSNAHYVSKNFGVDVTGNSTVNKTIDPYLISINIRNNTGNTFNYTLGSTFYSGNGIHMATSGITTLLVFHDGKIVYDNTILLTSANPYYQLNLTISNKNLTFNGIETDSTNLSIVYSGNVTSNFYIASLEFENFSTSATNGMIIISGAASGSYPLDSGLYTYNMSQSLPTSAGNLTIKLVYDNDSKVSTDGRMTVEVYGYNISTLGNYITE

| Molecule | % c (EstFA) [%] | % e.e. (EstFA) [%] | E (EstFA) | Activity (%) EstFA (EstFA (acidic esterase); additive 10 mM) [%] | Activity (%) EstFA (EstFA (acidic esterase); additive 125 mM) [%] | Activity (%) LigFA (LigFA (acidic ligase); additive 10 mM) [%] | Activity (%) LigFA (LigFA (acidic ligase); additive 125 mM) [%] | Activity (%) αGluFα ([1]; additive 10 mM) [%] | Activity (%) αGluFα ([1]; additive 125 mM) [%] | further results |
| --- | --- | --- | --- | --- | --- | --- | --- | --- | --- | --- |
| CCCC(=O)OC(C)c1ccccc1 (centres unmarked) [1-phenyl ethylbutyrate] | 36.2 | 33.7 | 2.4 |  |  |  |  |  |  |  |
| [Ca+2] [Ca^2+] |  |  |  | 116.3 | 100.8 | 126.2 | 81.6 | 91.2 | 74.1 | substitution of Fe^2+ in EstFA (EstFA (acidic esterase)): could not substitute Fe^2+ |
| [Co+2] [Co^2+] |  |  |  | 55.2 | 68.3 | 102.5 | 88.7 | 72.0 | 82.8 | substitution of Fe^2+ in EstFA (EstFA (acidic esterase)): could not substitute Fe^2+ |
| O=C(O)CN(CCN(CC(=O)O)CC(=O)O)CC(=O)O [EDTA] |  |  |  | 16.0 | 9.5 | 17.2 | 7.0 | 10.6 | 9.4 | effect of complexing Fe^2+ on EstFA activity (EstFA (acidic esterase); added EDTA): inhibited the activity of EstFA in a reversible manner |
| [K+] [K^+] |  |  |  | 108.5 | 115.7 | 129.9 | 93.8 | 86.0 | 76.3 |  |
| [Li+] [Li^+] |  |  |  | 100.2 | 48.0 | 101.6 | 107.9 | 107.2 | 69.4 |  |
| [Mg+2] [Mg^2+] |  |  |  | 106.1 | 116.8 | 157.0 | 126.8 | 92.2 | 64.7 | substitution of Fe^2+ in EstFA (EstFA (acidic esterase)): could not substitute Fe^2+ |
| N [NH4^+] |  |  |  | 85.2 | 97.1 | 107.2 | 108.2 | 103.8 | 58.8 |  |
| [Na+] [Na^+] |  |  |  | 102.8 | 91.2 | 71.1 | 100 | 86.3 | 74.0 |  |
| CCCCCCCCCCCCOS(=O)(=O)[O-].[Na+] [SDS] |  |  |  | 75.2 |  | 32.6 |  | 2.4 |  | Activity (%) EstFA (EstFA (acidic esterase); additive 50 mM): 47.3%; Activity (%) LigFA (LigFA (acidic ligase); additive 50 mM): 27.5%; Activity (%) αGluFα ([1]; additive 50 mM): 0.5% |
| [Sr+2] [Sr^2+] |  |  |  | 102.1 | 106.5 | 90.7 | 20.2 | 98.0 | 71.3 |  |
| [Zn+2] [Zn^2+] |  |  |  | 57.8 | 4.6 | 5.3 | 10.2 | 1.1 | 16.2 |  |
| COC(=O)[C@H](C)N [alanine methylester] | 8.71 | 2.5 | 3.8 |  |  |  |  |  |  |  |
| O=C1CCC(CO)O1 (centres unmarked) [dihydro-5-hydroxymethyl-2(3H)-furanone] | 39.3 | 88.6 | 29.7 |  |  |  |  |  |  |  |
| [Mn+2] [manganese] |  |  |  |  |  |  |  |  |  | substitution of Fe^2+ in EstFA (EstFA (acidic esterase)): could not substitute Fe^2+ |
| CC(=O)OC1CC(C)CCC1C(C)C (centres unmarked) [menthyl acetate] | 42.2 | 78.4 | 14.7 |  |  |  |  |  |  |  |
| OCCS [mercaptoethanol] |  |  |  |  |  |  |  |  |  | Activity (%) EstFA (EstFA (acidic esterase); additive 1 mM): 55% |
| COC(=O)C(C)O (centres unmarked) [methyl lactate] | 3.4 | 2.38 | 1.1 |  |  |  |  |  |  |  |
| COC(=O)C(C)CO (centres unmarked) [methyl-3-hydroxy-2-methylpropionate] | 30.8 | 98 | 116.2 |  |  |  |  |  |  |  |
| COC(=O)CC(C)O (centres unmarked) [methyl-3-hydroxybutyrate] | 26.2 | 98 | 42.8 |  |  |  |  |  |  |  |
| [Cl][Ni][Cl] [nickel] |  |  |  |  |  |  |  |  |  | substitution of Fe^2+ in EstFA (EstFA (acidic esterase)): could not substitute Fe^2+ |
| CC1(C)COC(=O)C1O (centres unmarked) [pantolactone] | 10.06 | 39.36 | 2.40 |  |  |  |  |  |  |  |
| CCCC(=O)OCC1COC(C)(C)O1 (centres unmarked) [solketal butyrate] | 29.0 | 74.46 | 9.2 |  |  |  |  |  |  |  |
| COC(=O)[C@@H](N)Cc1c[nH]c2ccccc12 [tryptophane methylester] | 4.33 | 2.12 | 1.1 |  |  |  |  |  |  |  |
| Triton X-100 |  |  |  |  |  |  |  |  |  | Activity (%) EstFA (EstFA (acidic esterase); additive 1%): 74.6%; Activity (%) EstFA (EstFA (acidic esterase); additive 3%): 43.5%; Activity (%) LigFA (LigFA (acidic ligase); additive 1%): 62.3%; Activity (%) LigFA (LigFA (acidic ligase); additive 3%): 9.0%; Activity (%) αGluFα ([1]; additive 1%): 95.7%; Activity (%) αGluFα ([1]; additive 3%): 47.4% |
| amylopectin |  |  |  |  |  |  |  |  |  | Kcat (αGluFA): 89 ± 10.5 s⁻¹; Km (αGluFA): 1.05 ± 0.19 mg/mL |
| amylose |  |  |  |  |  |  |  |  |  | Kcat (αGluFA): 126.0 ± 7.5 s⁻¹; Km (αGluFA): 7.49 ± 0.88 mg/mL |
| dextrin |  |  |  |  |  |  |  |  |  | Kcat (αGluFA): 93.0 ± 11^ s^−1; Km (αGluFA): 0.221 ± 0.03 mg/mL |
| pullulan |  |  |  |  |  |  |  |  |  | Kcat (αGluFA): 2.8 ± 0.1 s⁻¹; Km (αGluFA): 11.0 ± 0.1 mg/mL |
| soluble starch |  |  |  |  |  |  |  |  |  | Kcat (αGluFA): 94.0 ± 11^ s^−1; Km (αGluFA): 0.11 ± 0.02 mg/mL |

Reference: patent US8003357B2, “Acidophilic enzymes” (Helmholtz-Zentrum Fuer Infektionsforschung GmbH, priority 2005, dated 2011)
